This is an account of results in US11896561B2, “Compositions including a cannabinoid and protocatechuic acid” (priority 2021, dated 2024).

The conditions of series [1]: cited from earlier work.
For series [2] the following is noted: humans; cited from earlier work.
The nature of series [3]: Testing of smear on glass slide (crystals deployed). The class given is physicochemical. From the text: An additional method was employed to replicate the clinical topical application. A smear of the various concentrations was made on the glass histology blank slide to show the amount of crystals deployed for the various concentrations.
For series [4] the following is noted: cited from earlier work. This is another data set of the same source.
Series [5] can be described thus: CBD solubility testing in liquid vehicles. The class given is physicochemical. An excerpt: The liquid vehicles used are considered G.R.A.S. by FDA; distilled water, deionized water, propylene glycol and 70% isopropyl alcohol. The test containers were 125-milliliter graduated and measured sterile plastic from Wheaton company. A thermometer probe was used to assess the temperatures.
Testing was done to determine the independent solubility of each reagent in the various vehicles. This was followed by testing the potential concentrations of each when combined. The testing started with an arbitrary solution concentration, one that could be altered for percentage of solubility.

The conditions of series [6]: compared with vitamin E; cited from earlier work.
The next series deals with MRSA and Pseudomonas. Conditions: cited from earlier work.

Values after ≈ are worked out from the molar mass of the structure shown. “Also recorded” adds a separate entry of the source.

Regarding `C=C(C)[C@@H]1CCC(C)=C[C@H]1c1c(O)cc(CCCCC)cc1O` [CBD, Cannabidiol], the “solubility in DMSO” value in series [1] (DMSO purged with an inert gas) was ~60 mg/mL (≈ 191 mM). In addition, the “solubility in alcohol / isopropyl alcohol” value in series [1] (alcohol, at the original time of extraction, by the literature) was “up to 90%”. For the same compound, in series [1] (dimethyl formamide purged with an inert gas), the “solubility in dimethyl formamide” value was ~50 mg/mL (≈ 159 mM). The solubility in ethanol result in series [1] (ethanol purged with an inert gas) is “approximately 35 mg/ml”. For the same compound, the solubility in methanol in series [1] (methanol purged with an inert gas) is ~30 mg/mL (≈ 95.4 mM). In addition, in series [2], the oral bioavailability entry was “approximately 6%”. For the same compound, the “crystals on glass slide smear” value is “very sparse crystals” in series [3] (1% concentrations); “abundant crystals” in series [3] (concentrations of 2 and 3%). For the same compound, the elimination half-life in series [4] (in vivo) was 18 to 32 h. The “heating necessary for dissolving” value in series [5] (0.247 (0.247%) in 100 ml distilled water) and in series [5] (1.0 gram (1%) in 100 ml distilled water) was 120 degrees Fahrenheit in each case. Moreover, the “solution outcome upon cooling” value in series [5] (0.247 (0.247%) in 100 ml distilled water, heated to 120 degrees Fahrenheit then cooled) is recorded as “went out of solution”; in series [5] (1.0 gram (1%) in 100 ml distilled water, heated to 120 degrees Fahrenheit then cooled) it was “went out of solution”; in series [5] (2% in 100 ml propylene glycol, heated then cooled), “came out of solution”. For the same compound, the “time remained in solution” value was “at least 48 hours” in series [5] (0.517 (0.5 grams) in 50 ml deionized water, preheated) and > 48 h in series [5] (1 gram (1%) in 100 ml propylene glycol, preliminary heating to 120 Fahrenheit, after cooling). Besides, the time soluble result in series [5] (1.02 gram in 100 ml isopropyl alcohol) is given as “more than 48 hours”. Besides, in series [5] (1.025 grams in 50 ml deionized water), the “temperature at which it went into solution” value was found to be 120 Fahrenheit. Further, the solution outcome is “came out of solution” in series [5] (1.025 grams in 50 ml deionized water (2.05%), after cooling) and “did not go into solution even with heating; also recorded: not dissolved even on heating” in series [5] (2 grams (4%) in 50 ml propylene glycol, with heating). For the same compound, the time remained soluble entry in series [5] (3 grams in 100 ml 70% isopropyl alcohol) is “more than 48 hours”. Further, the “temperature required to dissolve” value in series [5] (40 milligrams of CBD in distilled water) was 140 degrees Fahrenheit. Also, the “effect of heating in solution” value in series [5] (heated past 100 Fahrenheit) is “forms a tan “glue” like material”. Further, in series [5] (heating above 90 Fahrenheit), the “effect of heating alone and/or in combination” value is “tan ‘glue’ or sticky material”.

`O=C(O)c1ccc(O)c(O)c1` [PCA, Protocatechuic acid]: the “antioxidant power relative to vitamin E” value in series [6] is recorded as 10 times. In addition, in the series with MRSA and Pseudomonas (topical 25 uM PCA, mammalian skin wound), the “time to heal the wound” value is on record as 2 days. Moreover, the “topical dose sufficient for controlling skin wound infection” value with MRSA and Pseudomonas (topical, mammalian skin wound of MRSA and Pseudomonas) is 25 µM. Also, in series [3] (concentrations of 2 and 3%), the “crystals on glass slide smear” value is on record as “abundant crystals”. For the same compound, the “life (duration in the body)” value in series [4] (in vivo) was 8 h. The oral availability in series [4] (oral, in 30 minutes) is 100%. For the same compound, in series [4] (time of peak in the body), the peak is 2 min.
